Measurements reported in ChEMBL document CHEMBL1201862, “PubChem BioAssay data set” (2004).
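Method: 48-hour compound exposure of cells in 96-well plates, five concentrations, linear interpolation of endpoints. At the GI50, growth is halved.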 Calls of active or inactive are those of the source. Cut-off read from the data, not from the text of the source: active = GI50 up to about 1.1 µM and inactive = higher.

Columns and labels:
Assay in all cases: growth of human tumour cells (NCI), 48 h
A498 = tested on: A498
A549 = tested on: A549
HOP-62 = tested on: HOP-62
HT-29 = tested on: HT-29
K562 = tested on: K562
LOX IMVI = tested on: LOX IMVI
MCF7 = tested on: MCF7
MDA-MB-231 = tested on: MDA-MB-231
MDA-MB-435 = tested on: MDA-MB-435
MOLT-4 = tested on: MOLT-4
RPMI-8226 = tested on: RPMI-8226
RXF 393 = tested on: RXF 393
SF-268 = tested on: SF-268
SF-539 = tested on: SF-539
SK-MEL-28 = tested on: SK-MEL-28
SK-MEL-5 = tested on: SK-MEL-5
SR = tested on: SR
SW-620 = tested on: SW-620
T47D = tested on: T47D
UACC-257 = tested on: UACC-257

Measured: GI50

OC1(c2ccc(Cl)cc2)c2c(c3ccccc3c3ccccc23)C2=NCCN21 (stereo not given)
inactive: A498 19.1 µM | A549 9.14 µM | HOP-62 11.3 µM | HT-29 14.6 µM | K562 37.3 µM | LOX IMVI 24.1 µM | MCF7 14.6 µM | MDA-MB-231 12 µM | MDA-MB-435 29.7 µM | MOLT-4 10.8 µM | RPMI-8226 34.4 µM | RXF 393 11.4 µM | SF-268 10.6 µM | SF-539 11.2 µM | SK-MEL-28 18.3 µM | SK-MEL-5 29 µM | SR 4.42 µM | SW-620 12.6 µM | T47D 15.4 µM | UACC-257 20.4 µM
